How the values were obtained:
[1] = test system: Carnation mottle virus (CarMV) and Carnation necrotic fleck virus (CNFV); experiment: Virus-free culture, ribavirin combined with shoot apex peeling: virus-free regenerated plants; format: in vivo, Dianthus caryophyllus; conditions: 3 mg/L to 5 mg/L ribavirin in medium, 30 d to 40 d; for Number of virus-free regenerated plant (s): 30 shoot apexes
Experimental: Double-antibody sandwich ELISA included: 100 µL of an antibody diluted to a working concentration with a coating buffer was added to wells of a microtiter plate, the microtiter plate was placed in a wet box, and incubated in a refrigerator at 4° C. overnight, or incubated at room temperature (20° C. to 25° C.) for 4 h. The coating buffer was a 0.05 mol/L Na2CO3—NaHCO3 buffer, at a pH value of 9.6. Dianthus caryophyllus leaves and a grinding buffer were put in a disposable ziplock bag at a ratio of 1:10 (W/V), the bag was sealed tightly, and the sample was ground. The grinding buffer was obtained by: dissolving 2.0 g of a skim milk powder, 10.0 g of polyvinylpyrrolidone (PVP, MW24,000-40,000), 1.3 g of anhydrous sodium sulfite, 0.2 g of NaN3, and 10.0 g of Tween-20 in a washing buffer (PBST), diluting to 1,000 mL, and storing at 4° C. The washing buffer (PBST) was obtained by: dissolving 8.0 g of NaCl, 0.2 g of KH2PO4, 2.9 g of Na2HPO4·12H2O, 0.2 g of KCl, and 0.5 mL of Tween-20 in distilled water, diluting to 1,000 mL, and adjusting to a pH value of 7.4. After incubation, the microtiter plate was washed 4 to 6 times with the washing buffer. 400 µL of the PBST washing buffer was added to each well and held for 1 min to 2 min each time. 100 µL of a supernatant after grinding was added to each well, and each sample to be tested was repeated twice, and a negative control and a positive control were set at the same time. The microtiter plate was placed in a wet box, incubated in a refrigerator at 4° C. overnight or incubated at 21° C. to 24° C. for 2.5 h. The plate was washed. An enzyme-labeled antibody was prepared 10 min before coating, a dilution buffer of the specific enzyme-labeled antibody was diluted to a working concentration, and 100 µL was added to each well. The microtiter plate was placed in a wet box, incubated at 21° C. to 24° C. for 2.5 h. The plate was washed. The dilution buffer of the enzyme-labeled antibody was obtained by: dissolving 2.0 g of bovine serum albumin (BSA), 10.0 g of PVP (MW24,000-40,000), and 0.2 g of NaN3 in the PBST, diluting to 1,000 mL, and storing at 4° C. 100 µL of a substrate solution was added to each well. The substrate solution was prepared for immediate use by: dissolving 1 mg of PNPP in 1 mL of a substrate buffer, with a concentration of 1 mg/mL. The substrate buffer is obtained by: dissolving 97.0 mL of diethanolamine, 0.1 g of magnesium chloride, and 0.2 g of NaN3 in 800 mL of distilled water, adjusting to a pH value of 9.8 with 2 mol/L hydrochloric acid, diluting to 1000 mL, and storing at 4° C. The microtiter plate was placed in a wet box, to conduct color development at 21° C. to 24° C. for 30 min to 60 min in the dark. 50 µL of a stop solution was added to each well to stop the reaction. The stop solution was a sodium hydroxide solution of 3 mol/L. Within 20 min of stopping the reaction, the microtiter plate was placed in a microplate reader, an absorbance (OD405) was measured at 405 nm, and a reaction result was recorded. If an average OD value of the sample was greater than 2 times an OD value of the negative control, it was determined to be the CarMV.
The indirect ELISA included: Dianthus caryophyllus leaves and an indirect sample extraction buffer were placed in a disposable ziplock bag at a ratio of 1:100 (W/V), the bag was sealed tightly, and the sample was ground. The sample extraction buffer was obtained by: dissolving 20.1 g of PVP (MW24,000-40,000), 0.2 g of NaN3, 3.0 g of NaHCO3, and 1.6 g of Na2CO3 in distilled water, diluting to […], and storing at 4° C. 100 µL of a supernatant after grinding was added to each well, and each sample to be tested was repeated twice, and a negative control and a positive control were set at the same time. The microtiter plate was placed in a wet box and incubated at room temperature for 1 h. After incubation, the microtiter plate was washed 8 times with the PBST washing buffer. […]

[2] = test system: Dianthus caryophyllus shoot apex; experiment: Virus-free culture, ribavirin combined with shoot apex peeling: regeneration of peeled shoot apex; format: in vivo; conditions: 3 mg/L to 5 mg/L ribavirin in medium, 30 d to 40 d; for Number of regenerated plant (s): 30 shoot apexes
Source text: After the explant germinated and buds grew to 2 cm to 3 cm, the buds were cut and subjected to virus-free culture; three virus-free methods were used, and the most suitable virus-free method was selected for Dianthus caryophyllus. • (1) Directly shoot apex peeling method: the material was placed on an ultra-clean workbench, and tender leaves were peeled off with tweezers and a scalpel under the naked eye to expose a growth cone; a base of the bud was fixed with tweezers, and the shoot apex was continued to be peeled under a dissecting microscope at 25 to 50 times; when peeling to a growth point containing 1 to 2 pairs of leaf primordia, the shoot apex was picked on a medium with the tip of a knife. • (2) High-temperature treatment combined with shoot apex peeling method: the material was placed in a KBWF720 artificial climate box, and incubated for 30 d to 35 d at 38° C. ± 1° C. every day, with illumination for 14 h to 16 h at 1,200 Lux to 1,500 Lux, and then with darkness for 8 h to 10 h; and the shoot apex was continued to be peeled under a dissecting microscope at 25 to 50 times; when peeling to a growth point containing 1 to 2 pairs of leaf primordia, the shoot apex was picked on a medium with the tip of a knife. • (3) Ribavirin combined with shoot apex peeling method: the material was inoculated on a medium containing ribavirin for culture, namely MS+BA 0.5 mg/L to 1.5 mg/L+NAA 0.1 mg/L to 0.3 mg/L+3 mg/L to 5 mg/L ribavirin+A Agar 6.0 g/L, 3% sucrose, at a pH value of 5.8 to 6.0; after culturing for 30 d to 40 d, the shoot apex was peeled off.
The peeled shoot apex was inoculated on a medium including MS+BA 0.5 mg/L to 1.0 mg/L+NAA 0.1 mg/L to 0.3 mg/L+A agar 6.0 g/L, 3% sucrose, at a pH value of 5.8 to 6.0; each shoot apex was cultured and numbered separately; the culture was conducted at 22±1° C. and an illumination intensity of 2,000 Lux to 4,000 Lux with an illumination time of 10 h/d to 12 h/d.

[3] = growth point of peeled shoot apex 0.2 mm
[4] = growth point of peeled shoot apex 0.4 mm
[5] = growth point of peeled shoot apex 0.6 mm
[6] = growth point of peeled shoot apex 0.8 mm
[7] = growth point of peeled shoot apex 1.0 mm

## NC(=O)c1ncn([C@@H]2O[C@H](CO)[C@@H](O)[C@H]2O)n1 [Ribavirin, ribavirin]
[1]; [3]
  Virus-free rate (%): 33.33%
  Number of virus-free regenerated plant (s): 10
[1]; [4]
  Virus-free rate (%): 30.00%
  Number of virus-free regenerated plant (s): 9
[1]; [5]
  Virus-free rate (%): 26.67%
  Number of virus-free regenerated plant (s): 8
[1]; [6]
  Virus-free rate (%): 20.00%
  Number of virus-free regenerated plant (s): 6
[1]; [7]
  Virus-free rate (%): 10.00%
  Number of virus-free regenerated plant (s): 3
[2]; [3]
  Regeneration rate (%): 53.33%
  Number of regenerated plant (s): 16
[2]; [4]
  Regeneration rate (%): 63.33%
  Number of regenerated plant (s): 19
[2]; [5]
  Regeneration rate (%): 73.33%
  Number of regenerated plant (s): 22
[2]; [6]
  Regeneration rate (%): 86.67%
  Number of regenerated plant (s): 26
[2]; [7]
  Regeneration rate (%): 96.67%
  Number of regenerated plant (s): 29

Reference: patent US20230363335A1, “STANDARDIZED AND VIRUS-FREE RAPID PROPAGATION METHOD OF DIANTHUS CARYOPHYLLUS” (Flower Research Institute, Yunnan Academy of Agricultural …, priority 2022, published 2023)
